Results from patent publication US7772218B2, “Synthesis of anti-estrogenic and other therapeutic steroids from 21-hydroxy-19-norpregna-4-en-3-one” (SRI International, priority 2000, dated 2010).
Structures can show the parent of a compound that is named as a salt.

Tests used:
human breast tumor cells = settings: cited from earlier work
rat uterine tissue = settings: cited from earlier work
human uterine tissue = settings: cited from earlier work
[1] = rats; cited from earlier work
[2] = rats; cited from earlier work; remark: listed apart in the source
[3] = in vivo, cited from earlier work
DU145 cells = test: growth inhibition assay (MTT), androgen-independent human prostate cancer cells; assay type: cell-based; settings: concentrations of 5 μM or higher, 7 days of treatment, 575 nm
Experimental: (§1) [drawing 32] was synthesized as described in Example 4 without methylation at the 7-position of the steroid nucleus. The compound was evaluated for its inhibitory effect on androgen-independent human prostate cancer cells, DU145 cells and PC-3 cells, in a standard in vitro androgen-independent human prostate cancer assay.
(§2) DU145 and PC-3 human prostate cancer cell lines were obtained from the American Type Culture Collection, Rockville, Md. Eagle's minimum essential medium, RPMI-1640 medium, fetal calf serum, nonessential amino acids, and sodium pyruvate were purchased from Sigma, St. Louis, Mo.
(§3) PC-3 cells were maintained in RPMI-1640 medium supplemented with 10% fetal calf serum (FCS) and DU145 cells in Eagle's minimum essential medium (MEM) supplemented with 10% FCS. 1% nonessential amino acids, and 1 mM pyruvate. All cells were cultured at 37° C. in a 5% CO2/ 95% air atmosphere in 100% humidity. […] After 7 days of treatment, viable cells in each well were measured using the MTT assay as described in “Cellular Proliferation Assay,” in Protocols and Applications, 3rd Edition (Promega Corporation). […]
(§4) The plate was kept at room temperature overnight and the blue color measured at 575 nm on an ELISA plate reader. Based on the optical density of samples treated with the test compound and that of the control, the inhibitory effect of SR 16312 was evaluated.

PC-3 cells = test: as above; assay type: cell-based; settings: concentrations of 5 μM or higher, 7 days of treatment, 575 nm
Experimental: as §1, §2, §3, §4

**Q.** With `CCN(CC)Cc1ccc(OCC[C@H]2CCC3C4C(CCC32C)c2ccc(O)cc2C[C@H]4C)c(OC)c1` (stereo partly drawn) [SR 16234, 3-hydroxy-7α-methyl-21-[2′-methoxy-4′-(diethylaminomethyl)-phenoxy]-19-norpregna-1,3,5(10)triene citrate] as the compound, how does the antagonist-antiestrogenic activity (human breast tumor cells) read?
**A.** complete

**Q.** What about the anti-uterotrophic antagonist activity (rat uterine tissue) of the same compound?
**A.** complete

**Q.** What about the anti-uterotrophic antagonist activity (human uterine tissue) of the same compound?
**A.** complete

**Q.** What about the “high-density lipoprotein (HDL) cholesterol levels” value [1] of the same compound?
**A.** increased

**Q.** And the “low-density lipoprotein (LDL) cholesterol levels” value [1]?
**A.** lowered

**Q.** What about the “agonist-estrogenic activity in the skeletal system” value [2] of the same compound?
**A.** maintenance of bone and prevention of bone loss

**Q.** What about the oral bioavailability ([3]; po) of the same compound?
**A.** good

**Q.** What about the absorption [3] of the same compound?
**A.** good

**Q.** And the half-life [3]?
**A.** good

**Q.** Which inhibition (DU145 cells) does the source give for `CCN(CC)Cc1ccc(OCC[C@H]2CCC3C4CCC5=CC(=O)CCC5C4CCC32C)c(OC)c1` (some centres unmarked) [SR 16312] here?
**A.** ~100%

**Q.** And the inhibition (PC-3 cells)?
**A.** ~100%
